Results as given in patent US5792831A, “Analogues of magainin peptides containing D-amino acids” (priority 1994, dated 1998).
≈ marks a conversion by molar mass, not a printed value. Square brackets hold non-standard residues; d marks the D form. Ends that are not written are not given here. Peptide text beside a SMILES is read from it. * marks the point of attachment. Octanoyl = CCCCCCCC(=O)*

Columns and labels:
Type in all cases: cell-based
P. aeruginosa ATCC 27853 = test: Antibacterial MIC assay, microtiter broth dilution (NCCLS M7-T2); settings: Mueller Hinton broth, 16-20 hours at 37° C.
Protocol: (§1) The procedure for the following antibacterial assay is based upon the guidelines of the National Committee for Clinical Laboratory Standards, Document M7-T2, Volume 8, No. 8, 1988.
(§2) were prepared at a concentration of 512 μpg/ml in sterile deionized distilled water and stored at -70° C.
(§3) 1.5×10^5 CFUs/ml of either S. aureus ATCC 25923, E. coli ATCC 25922, P. aeruginosa ATCC 27853, or C. albicans were added to the wells in full strength Mueller Hinton broth (BBL 11443) from a mid-log culture. The inoculums are standarized spectrophotometrically at 600 nm and is verified by colony counts. The plates are incubated for 16-20hours at 37° C., and the minimal inhibitory concentration (MIC) for each peptide is determined. Minimal inhibitory concentration is defined as the lowest concentration of peptide which produces a clear well in the microtiter plate.

E. coli ATCC 25922 = test: as above; settings: Mueller Hinton broth, 16-20 hours at 37° C.
Protocol: as §1, §2, §3

S. aureus ATCC 25923 = test: as above; settings: Mueller Hinton broth, 16-20 hours at 37° C.
Protocol: as §1, §2, §3

C. albicans = test: MIC assay, microtiter broth dilution (NCCLS M7-T2); settings: Mueller Hinton broth, 16-20 hours at 37° C.
Protocol: as §1, §2, §3

[1] = tested on: melanoma cell line WM983B; test: 3H-thymidine radioactive counts, melanoma cells (Example 6); settings: 2% tumor media
[2] = tested on: melanoma cell line WM983A; test: as above; settings: 2% tumor media
[3] = tested on: melanoma cell line SkMe123; test: as above; settings: 2% tumor media
melanoma cell line WM39 = test: as above; settings: 2% tumor media
[4] = tested on: melanoma cell line WM1158; test: as above; settings: 2% tumor media
[5] = tested on: melanoma cell line WM1366; test: as above; settings: 2% tumor media
melanoma cell line WM973 = test: as above; settings: 2% tumor media
melanoma cell line WM115 = test: as above; settings: 2% tumor media
[6] = tested on: melanoma cell line WM1791A; test: as above; settings: 2% tumor media
melanoma cell line WM164 = test: as above; settings: 2% tumor media
melanoma cell line WM8 = test: as above; settings: 2% tumor media
[7] = tested on: melanoma cell line WM239A; test: as above; settings: 2% tumor media
WM278 (primary melanoma) = test: Melanoma growth reduction, 3H-thymidine incorporation (Example 4); settings: 2% tumor medium
Protocol: (§4) Melanoma cell lines WM-239-A (metastatic melanoma), WM278 (primary melanoma), WM793 (primary melanoma) and WM1158 (metastatic melanoma) were seeded in 24-well plates at a concentration of 7.5×10^4 cells/ml containing 2% tumor medium.
(§5) Peptides (SEQ ID NO:6) and D-(SEQ ID NO:6), in which each amino acid residue is a D-amino residue or a glycine residue, were frozen at -20° C. in […] aliquots at a concentration of 25 mg/ml. Each peptide was then dissolved in sterile distilled water at a dilution of 1:1,000 or 1:5,000 to provide peptide concentrations of 25 μg/ml or 5 μg/ml, respectively. The peptides at the 25 μg/ml or 5 μg/ml concentrations were then added to the plates containing the melanoma cells. The amount of ^3 H-thymidine incorporation for each well was taken on days 1, 3, and 7.

WM793 (primary melanoma) = test: as above; settings: 2% tumor medium
Protocol: as §4, §5

[8] = tested on: WM1158 (metastatic melanoma); test: as above; settings: 2% tumor medium
Protocol: as §4, §5

[9] = tested on: WM-239-A (metastatic melanoma); test: as above; settings: 2% tumor medium
Protocol: as §4, §5

melanoma cell line WM852 = test: 3H-thymidine radioactive counts, melanoma cells (Example 6); settings: 2% tumor media
melanoma cell line WM35 = test: as above; settings: 2% tumor media
[10] = tested on: melanoma cell line WM902B; test: as above; settings: 2% tumor media

CCCCCCCC(=O)N[C@@H](CC(C)C)C(=O)N[C@@H](CCCCN)C(=O)N[C@@H](CCCCN)C(=O)N[C@@H](CC(C)C)C(=O)N[C@@H](CC(C)C)C(=O)N[C@@H](CCCCN)C(=O)N[C@@H](CCCCN)C(=O)N[C@@H](CC(C)C)C(=O)N[C@@H](CCCCN)C(=O)N[C@@H](CCCCN)C(=O)N[C@@H](CC(C)C)C(N)=O [Oct-(SEQ ID NO:11)-NH2, reference compound] (Octanoyl-LKKLLKKLKKL-NH2)
MIC P. aeruginosa (P. aeruginosa ATCC 27853): 4 µg/mL (≈ 2.71 µM)
MIC E. coli (E. coli ATCC 25922): 8 µg/mL (≈ 5.41 µM)
MIC S. aureus (S. aureus ATCC 25923): 4 µg/mL (≈ 2.71 µM)
MIC C. albicans (C. albicans): 32 µg/mL (≈ 21.6 µM)

CCCCCCCC(=O)N[C@H](CC(C)C)C(=O)N[C@H](CCCCN)C(=O)N[C@H](CCCCN)C(=O)N[C@H](CC(C)C)C(=O)N[C@H](CC(C)C)C(=O)N[C@H](CCCCN)C(=O)N[C@H](CCCCN)C(=O)N[C@H](CC(C)C)C(=O)N[C@H](CCCCN)C(=O)N[C@H](CCCCN)C(=O)N[C@H](CC(C)C)C(N)=O [Oct-D-(SEQ ID NO:11)-NH2] (Octanoyl-[dL][dK][dK][dL][dL][dK][dK][dL][dK][dK][dL]-NH2)
MIC P. aeruginosa (P. aeruginosa ATCC 27853): 4 µg/mL (≈ 2.71 µM)
MIC E. coli (E. coli ATCC 25922): 8 µg/mL (≈ 5.41 µM)
MIC S. aureus (S. aureus ATCC 25923): 4 µg/mL (≈ 2.71 µM)
MIC C. albicans (C. albicans): 32 µg/mL (≈ 21.6 µM)

D-(SEQ ID NO:6): each amino acid residue is a D-amino residue or a glycine residue; possibly the same as D-(SEQ ID NO:6)-NH2 (G[dI]G[dK][dF][dL][dK][dS][dA][dK][dK][dF]G[dK][dA][dF][dV][dK][dI][dL][dN][dS]; not fully specified)
Radioactive Counts WM983B ([1]; dose 1 μg/ml): 225000
Radioactive Counts WM983B ([1]; dose 5 μg/ml): 135
Radioactive Counts WM983B ([1]; dose 25 μg/ml): 115
Radioactive Counts WM983A ([2]; dose 1 μg/ml): 335000
Radioactive Counts WM983A ([2]; dose 5 μg/ml): 5598
Radioactive Counts WM983A ([2]; dose 25 μg/ml): 313
Radioactive Counts SkMe123 ([3]; dose 1 μg/ml): 114846
Radioactive Counts SkMe123 ([3]; dose 5 μg/ml): 2028
Radioactive Counts SkMe123 ([3]; dose 25 μg/ml): 429
Radioactive Counts WM39 (melanoma cell line WM39; dose 1 μg/ml): 27635
Radioactive Counts WM39 (melanoma cell line WM39; dose 5 μg/ml): 1308
Radioactive Counts WM39 (melanoma cell line WM39; dose 25 μg/ml): 273
Radioactive Counts WM1158 ([4]; dose 1 μg/ml): 131000
Radioactive Counts WM1158 ([4]; dose 5 μg/ml): 884
Radioactive Counts WM1158 ([4]; dose 25 μg/ml): 2108
Radioactive Counts WM1366 ([5]; dose 1 μg/ml): 288000
Radioactive Counts WM1366 ([5]; dose 5 μg/ml): 1910
Radioactive Counts WM1366 ([5]; dose 25 μg/ml): 1692
Radioactive Counts WM973 (melanoma cell line WM973; dose 1 μg/ml): 81675
Radioactive Counts WM973 (melanoma cell line WM973; dose 5 μg/ml): 7284
Radioactive Counts WM973 (melanoma cell line WM973; dose 25 μg/ml): 770
Radioactive Counts WM115 (melanoma cell line WM115; dose 1 μg/ml): 222000
Radioactive Counts WM115 (melanoma cell line WM115; dose 5 μg/ml): 373
Radioactive Counts WM115 (melanoma cell line WM115; dose 25 μg/ml): 263
Radioactive Counts WM1791A ([6]; dose 1 μg/ml): 5655
Radioactive Counts WM1791A ([6]; dose 5 μg/ml): 1065
Radioactive Counts WM1791A ([6]; dose 25 μg/ml): 456
Radioactive Counts WM164 (melanoma cell line WM164; dose 1 μg/ml): 158000
Radioactive Counts WM164 (melanoma cell line WM164; dose 5 μg/ml): 4143
Radioactive Counts WM164 (melanoma cell line WM164; dose 25 μg/ml): 331
Radioactive Counts WM8 (melanoma cell line WM8; dose 1 μg/ml): 19226
Radioactive Counts WM8 (melanoma cell line WM8; dose 5 μg/ml): 248
Radioactive Counts WM8 (melanoma cell line WM8; dose 25 μg/ml): 99
Radioactive Counts WM239A ([7]; dose 1 μg/ml): 38053
Radioactive Counts WM239A ([7]; dose 5 μg/ml): 221
Radioactive Counts WM239A ([7]; dose 25 μg/ml): 459
% Growth Reduction (7 days) WM-278 (WM278 (primary melanoma); dose 5 μg/ml): 93.1%
% Growth Reduction (7 days) WM-278 (WM278 (primary melanoma); dose 25 μg/ml): 96.1%
% Growth Reduction (7 days) WM793 (WM793 (primary melanoma); dose 5 μg/ml): 95.6%
% Growth Reduction (7 days) WM793 (WM793 (primary melanoma); dose 25 μg/ml): 98.4%
% Growth Reduction (7 days) WM1158 ([8]; dose 5 μg/ml): 98.0%
% Growth Reduction (7 days) WM1158 ([8]; dose 25 μg/ml): 98.8%
% Growth Reduction (7 days) WM239-A ([9]; dose 5 μg/ml): 82.0%
% Growth Reduction (7 days) WM239-A ([9]; dose 25 μg/ml): 96.3%
Radioactive Counts WM852 (melanoma cell line WM852; dose 1 μg/ml): 169000
Radioactive Counts WM852 (melanoma cell line WM852; dose 5 μg/ml): 2699
Radioactive Counts WM852 (melanoma cell line WM852; dose 25 μg/ml): 554
Radioactive Counts WM35 (melanoma cell line WM35; dose 1 μg/ml): 47241
Radioactive Counts WM35 (melanoma cell line WM35; dose 5 μg/ml): 3187
Radioactive Counts WM35 (melanoma cell line WM35; dose 25 μg/ml): 360
Radioactive Counts WM902B ([10]; dose 1 μg/ml): 49299
Radioactive Counts WM902B ([10]; dose 5 μg/ml): 150
Radioactive Counts WM902B ([10]; dose 25 μg/ml): 75
